Results on one molecule are retold here after paper PMC5063977 (The Journal of Biological Chemistry, 2016).

The target in this test is T1, RAMP3-CLR (AM2 receptor) (Homo sapiens, UniProt O60896+Q16602).
T1 construct: FLAG; expressed in transfected cells; host or cells: HEK-293 or HEK-293S cells, transient transfection, 1:1 RAMP:CLR
Kind of test: cAMP accumulation, HEK-293S cells, RAMP3 + CLR. The class given is cell-based. Also noted: dose or concentration left out as unconfirmed. To be noted: HEK293S, mean ± S.E., n = 5. The procedure: HEK-293 cells, provided by Dr. Jügen Müller (University of Aston), were cultured in DMEM supplemented with 10% heat-inactivated FBS and kept at 37 °C in a humidified 95% air, 5% CO2 incubator. HEK-293S cells (a gift from AstraZeneca) were cultured in DMEM supplemented with 8% heat-inactivated FBS and kept at 37 °C in a humidified 95% air, 5% CO2 incubator. HEK-293 cells were transfected with FuGENE 6 (Roche Applied Science) in accordance with the manufacturer's instructions using a 1:3 (w:v) DNA:FuGENE ratio and a 1:1 ratio of RAMP to CLR. HEK-293S cells were seeded into 96-well poly-D-lysine-coated plates at a density of 15,000 cells/well (determined using a Countess^TM cell counter, Invitrogen) 1 day prior to transfection. HEK-293S cells were transiently transfected as described previously ([38]) using a 1:1 ratio of RAMP to CLR. The transfected cell lines were grown for 24–48 h prior to assaying.
The transfected HEK-293 cells were washed in PBS, resuspended in stimulation buffer (PBS containing 0.1% BSA and 0.5 mM IBMX), and seeded at 2000 cells/well in 384-well white Optiplates. Ligands were added in the range of 1 pM to 1 mM, and cAMP accumulation was measured after 30 min of stimulation using a LANCE® cAMP detection kit (PerkinElmer Life Sciences). […] Plates were read using a Mithras LB 940 multimode microplate reader (Berthold Technologies). […]

Molecules are shown by their SMILES.

T1 sequence (Q16602 23-461): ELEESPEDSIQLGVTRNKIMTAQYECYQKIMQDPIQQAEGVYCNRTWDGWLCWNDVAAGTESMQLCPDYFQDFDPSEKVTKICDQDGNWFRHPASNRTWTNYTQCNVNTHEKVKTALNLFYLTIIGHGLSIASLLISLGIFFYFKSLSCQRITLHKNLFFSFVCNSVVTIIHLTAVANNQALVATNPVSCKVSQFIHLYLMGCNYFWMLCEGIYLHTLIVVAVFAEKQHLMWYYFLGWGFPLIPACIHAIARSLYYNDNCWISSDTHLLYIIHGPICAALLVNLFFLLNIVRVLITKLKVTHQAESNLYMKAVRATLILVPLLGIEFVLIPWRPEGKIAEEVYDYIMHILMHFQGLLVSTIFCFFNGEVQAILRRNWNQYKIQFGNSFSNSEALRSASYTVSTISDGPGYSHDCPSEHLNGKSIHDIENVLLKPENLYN
T1 sequence (O60896 24-148): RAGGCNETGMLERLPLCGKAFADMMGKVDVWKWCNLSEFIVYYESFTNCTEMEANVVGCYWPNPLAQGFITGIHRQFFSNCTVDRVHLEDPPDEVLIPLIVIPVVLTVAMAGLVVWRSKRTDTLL

A word on the Emax: it is the size of the effect at its maximum, as opposed to the concentration needed. For the molecule `CC[C@H](C)[C@H](NC(=O)[C@H](CCC(N)=O)NC(=O)[C@H](Cc1c[nH]cn1)NC(=O)[C@H](C)NC(=O)[C@H](CC(C)C)NC(=O)[C@H](CCCCN)NC(=O)[C@H](CCC(N)=O)NC(=O)[C@@H](NC(=O)[C@@H](NC(=O)[C@@H]1CSSC[C@H](NC(=O)CNC(=O)[C@H](Cc2ccccc2)NC(=O)[C@H](CO)NC(=O)[C@H](CCCNC(=N)N)NC(=O)[C@H](CC(C)C)NC(=O)CNC(=O)[C@H](CCC(N)=O)NC(=O)[C@H](Cc2ccccc2)NC(=O)[C@H](CC(N)=O)NC(=O)[C@H](CC(N)=O)NC(=O)[C@H](CCSC)NC(=O)[C@H](CO)NC(=O)[C@H](CCC(N)=O)NC(=O)[C@H](CCCNC(=N)N)NC(=O)[C@@H](N)Cc2ccc(O)cc2)C(=O)N[C@@H](CCCNC(=N)N)C(=O)N[C@@H](Cc2ccccc2)C(=O)NCC(=O)N[C@@H]([C@@H](C)O)C(=O)N1)[C@@H](C)O)C(C)C)C(=O)N[C@@H](Cc1ccc(O)cc1)C(=O)N[C@@H](CCC(N)=O)C(=O)N[C@@H](Cc1ccccc1)C(=O)N[C@H](C(=O)N[C@@H](CC(=O)O)C(=O)N[C@@H](CCCCN)C(=O)N[C@@H](CC(=O)O)C(=O)N[C@@H](CCCCN)C(=O)N[C@@H](CC(=O)O)C(=O)N[C@@H](CC(N)=O)C(=O)N[C@H](C(=O)N[C@@H](C)C(=O)N1CCC[C@H]1C(=O)N[C@@H](CCCNC(=N)N)C(=O)N[C@@H](CO)C(=O)N[C@@H](CCCCN)C(=O)N[C@H](C(=O)N[C@@H](CO)C(=O)N1CCC[C@H]1C(=O)N[C@@H](CCC(N)=O)C(=O)NCC(=O)N[C@@H](Cc1ccc(O)cc1)C(N)=O)[C@@H](C)CC)C(C)C)[C@@H](C)O` [AM, adrenomedullin], the maximal response (Emax) was 39.1 ± 1.2%.
